According to EP0321175A1, “Indane derivatives” (BEECHAM GROUP PLC, priority 1987, dated 1989):

Experiments:
[1] = system: Spontaneously hypertensive rats; assay: Blood pressure lowering activity, tail cuff method; type: in vivo
Description: Systolic blood pressure were recorded by a modification of the tail cuff method described by I.M. Claxton, M.G. Palfreyman, R.H. Poyser, R.L. Whiting, European Journal of Pharmacology, 37, 179 (1976). A W+W BP recorder, model 8005 was used to display pulses.Prior to all measurements rats were placed in a heated environment (33.5 ± 0.5°C) before transfer to a restraining cage. Each determination of blood pressure was the mean of at least 6 readings. Spontaneously hypertensive rats (ages 12-18 weeks) with systolic blood pressures >180 mmHg were considered hypertensive.

[2] = system: guinea pig tracheal spiral preparations; assay: Bronchodilation in vitro; guinea pig tracheal spiral preparations; type: cell-based; details: relative to total relaxation evoked in the presence of 10⁻³M isoprenaline; for Emax: Cavia porcellus, read-out: I.A. (Intrinsic Activity, efficacy)
Description: Male guinea pigs (300-600g) were stunned by a blow to the head and bled from the carotid artery. The trachea was exposed, dissected free of connective tissue, and transferred to oxygenated krebs solution at 37°C. Next, spirals (2 per trachea) were prepared by cutting the whole trachea spirally along its longitudinal axis and then dividing this spiral lengthwise. Each preparation was mounted, using silk thread, in a 10ml organ bath filled with krebs solution at 37°C and bubbled with 5% CO₂ with O₂. The resting tension of the preparations was set at 2g and changes in muscle tension were monitored isometrically by means of a UFI (2oz) force and displacement transducer (Ormed Ltd) connected to a Linseis pen recorder. All preparations were allowed to equilibrate for 60 minutes. During this equilibration period the preparations were washed by upward displacement at 15 minute intervals and, if necessary, the resting tension was readjusted to 2g using a mechanical micromanipulator system.
Once a steady resting tension had been obtained, the preparations were dosed cumulatively with the test compound (10⁻⁸-2x10⁻⁵M), and finally a maximum relaxation achieved by addition of 10⁻³M isoprenaline. The fall in tension evoked by the test compound was expressed as a percentage of the total relaxation evoked in the presence of 10⁻³M isoprenaline. Appropriate concentration-relaxation curves were then constructed and values for potency (IC₅₀) and efficacy (Intrinsic Activity, I.A.) were obtained.
The compositions of Krebs solution is: sodium chloride 118.07mM, sodium hydrogen carbonate 26.19mM, potassium chloride 4.68mM, potassium orthophosphate 1.18mM, magnesium sulphate septahydrate 1.8mM and calcium chloride 2.52mM;pH ca. 7.45.

Structure (SMILES)	Emax [2] [%]	% change in systolic B.P. ([1]; 1 mg/kg p.o., 1 h post dose)	% change in systolic B.P. ([1]; 1 mg/kg p.o., 2 h post dose)	% change in systolic B.P. ([1]; 1 mg/kg p.o., 4 h post dose)	other results
CC1(C)c2ccc(N)cc2[C@@H](n2ccccc2=O)[C@@H]1O (relative stereo) [Example 9, Trans-5-amino-1,1-dimethyl-3-(2-pyridon-1-yl)indan-2-ol]					% change in systolic B.P. ([1]; 3 mg/kg p.o., 1 h post dose): -12 ± 2%; % change in systolic B.P. ([1]; 3 mg/kg p.o., 2 h post dose): -16 ± 3%; % change in systolic B.P. ([1]; 3 mg/kg p.o., 4 h post dose): -14 ± 4%; % change in systolic B.P. ([1]; 3 mg/kg p.o., 6 h post dose): -11 ± 2%
CCc1ccc2c(c1)[C@@H](N1CCCCC1=O)[C@H](O)C2(C)C (relative stereo) [Example 17, Trans-1,1-Dimethyl-5-ethyl-3-(2-oxopiperidin-1-yl)indan-2-ol]	76				
O=C(N[C@@H]1c2cc([N+](=O)[O-])ccc2C[C@H]1O)c1ccc(F)cc1 [Example 10, Trans-1-N-(4-fluorobenzamido)-6-nitroindan-2-ol]	59				
CC1(C)C=C(n2ccccc2=O)c2cc(C#N)ccc21 [Example 8, 5-Cyano-1,1-dimethyl-3-(2-pyridon-1-yl)ind-2-ene]	77	-12 ± 5%	-15 ± 3%	-26 ± 8%	% change in systolic B.P. ([1]; 1 mg/kg p.o., 6 h post dose): -21 ± 2%
CC1(C)c2ccc(C#N)cc2[C@@H](n2ccccc2=O)[C@@H]1O [Example 7, Trans-5-cyano-1,1-dimethyl-3-(2-pyridon-1-yl)-indan-2-ol]	81	-31 ± 3%	-22 ± 4%	-20 ± 4%	% change in systolic B.P. ([1]; 1 mg/kg p.o., 6 h post dose): -12 ± 6%
CC1(C)c2ccc([N+](=O)[O-])cc2[C@@H](N2CCCC2=O)[C@@H]1O (relative stereo) [Example 1, trans - 1,1-dimethyl-5-nitro-3-(2-oxopyrrolidin-1-yl)-indan-2-ol]	88				% change in systolic B.P. ([1]; 10 mg/kg p.o., 1 h post dose): -48 ± 4(n=4) %; % change in systolic B.P. ([1]; 10 mg/kg p.o., 2 h post dose): -49 ± 6(n=3) %; % change in systolic B.P. ([1]; 10 mg/kg p.o., 4 h post dose): -42 ± 4(n=6) %; % change in systolic B.P. ([1]; 10 mg/kg p.o., 6 h post dose): -30 ± 4(n=6) %
C[C@@H]1CCC(=O)N1[C@@H]1c2cc([N+](=O)[O-])ccc2C(C)(C)[C@H]1O (mixture of isomers) [Example 26, Trans-1,1-Dimethyl-5-nitro-3-(5-(R)-methyl-2-oxopyrrolidin-1-yl)indan-2-ol]	98				
CC1(C)c2ccc([N+](=O)[O-])cc2[C@@H](n2ccccc2=O)[C@@H]1O [Example 5, Trans-1,1-dimethyl-5-nitro-3-(2-pyridon-1-yl)indan-2-ol]	91	-40 (n=1) %	-43 (n=1) %	-43 ± 4 (n=1) %	% change in systolic B.P. ([1]; 1 mg/kg p.o., 6 h post dose): -31 ± 5 (n=5) %
CC1(C)C=C(N2CCCCC2=O)c2cc([N+](=O)[O-])ccc21 [Example 4, 1,1-dimethyl-5-nitro-3-(2-oxopiperidin-1-yl)ind-2-ene]	94				
CC1(C)c2ccc([N+](=O)[O-])cc2[C@@H](N2CCCCC2=O)[C@@H]1O (relative stereo) [Example 3, Trans 1,1-Dimethyl-5-nitro-3-(2-oxopiperidin-1-yl) indan-2-ol]	89	-33 ± 5 (n=5) %	-17 ± 3 (n=4) %	-22 ± 4 (n=6) %	% change in systolic B.P. ([1]; 1 mg/kg p.o., 6 h post dose): -19 ± 5 (n=6) %
CCc1ccc2c(c1)[C@@H](n1ccccc1=O)[C@H](O)C2(C)C (relative stereo) [Example 23, Trans 1,1-Dimethyl-5-ethyl-3-(2-pyridon-1-yl)indan-2-ol]					I.A. (Intrinsic Activity, efficacy) [2]: 0.92
C[C@@H]1CCC(=O)N1C1=CC(C)(C)c2ccc([N+](=O)[O-])cc21 [Example 27, 1,1-dimethyl-5-nitro-3-(5-(R)-methyl-2-oxopyrrolidin-1-yl)ind-2-ene]	93				
CC1(C)C=C(CN2CCCC2=O)c2cc(C#N)ccc21 [Example 24, 5-Cyano-1,1-dimethyl-3-[(2-oxopyrrolidin-1-yl)methyl]ind-2-ene]	59				
CC1(C)C=C(N2CCCCC2=O)c2ccc(C(F)(F)F)cc21 [Example 16, 1,1-dimethyl-3-(2-oxopiperidin-1-yl)-6-trifluoromethylind-2-ene]	89				
CC1(C)C=C(n2ccccc2=O)c2cc([N+](=O)[O-])ccc21 [Example 6, 1,1-Dimethyl-5-nitro-3-(2-pyridon-1-yl)ind-2-ene]	95	-18 ± 3%	-18 ± 3%	-13 ± 3%	
